From the supplement of paper PMC4862054

Each molecule was assayed on Hs578T (assay: drug sensitivity score (DSS), CellTox Green (DSS (AUC-based score)); higher = stronger drug effect (viability inhibition or cytotoxicity); extreme values may be limits of the assay). Settings: incubation time: 72 h.
Procedure, shortened: (§1)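 Compound was dispensed into 384-well plates at 5 concentrations in 10-fold steps spanning a 10,000-fold range chosen for each compound, and 20 µl of breast cancer cell suspension was added before 72 h of incubation. CellTox Green fluorescence was read at 485/520 nm, followed by CellTiter-Glo luminescence after 10 min at room temperature. Values on each plate were normalised to 0.1 % DMSO and a positive kill control. The drug sensitivity score came from the area under the fitted dose-response curve.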
In the case of CC1(C)NC(=O)N(c2ccc([N+](=O)[O-])c(C(F)(F)F)c2)C1=O [Nilutamide], the drug sensitivity score was 0.
In the case of CNCc1ccc(-c2[nH]c3cc(F)cc4c3c2CCNC4=O)cc1 [Rucaparib], the drug sensitivity score was 1.33.
In the case of C[C@]12CC[C@@H]3c4ccc(O)cc4C[C@@H](CCCCCCCCC[S+]([O-])CCCC(F)(F)C(F)(F)F)[C@H]3[C@@H]1CC[C@@H]2O (some centres not stated) [Fulvestrant], the drug sensitivity score was 0.
With C#Cc1cccc(Nc2ncnc3cc(OCCOC)c(OCCOC)cc23)c1 [Erlotinib] the drug sensitivity score was 0.
In the case of O=P1(NCCCl)OCCCN1CCCl (configuration not stated) [Ifosfamide], the drug sensitivity score was 0.
Cn1c(Nc2ccc(C(F)(F)F)cc2)nc2cc(Oc3ccnc(-c4ncc(C(F)(F)F)[nH]4)c3)ccc21 [RAF265] showed a drug sensitivity score of 0.
Work on Cc1ccc(C(=O)N(CCCN)[C@@H](c2oc3cc(Cl)ccc3c(=O)c2Cc2ccccc2)C(C)C)cc1 yielded a drug sensitivity score of 2.03.
O=C1CCC(N2C(=O)c3ccccc3C2=O)C(=O)N1 (configuration not stated) [Thalidomide] gave a drug sensitivity score of 0.
O=C(O)c1ccc(-c2c[nH]c3ncc(-c4ccccc4)cc23)cc1C1CCCC1 was tested, and the drug sensitivity score was 0.

What follows are molecules tested on DU-4475 in the same assay as above. Settings: incubation time: 72 h.
Procedure, shortened: as §1
With Oc1nc(-c2ccc(C(F)(F)F)cc2)nc2c1CSCC2 [XAV-939] the drug sensitivity score was 0.
NC(=O)Nc1cc(-c2cccc(F)c2)sc1C(=O)N[C@H]1CCCNC1 [AZD7762] gave a drug sensitivity score of 0.
With N.N.[Cl][Pt][Cl] [Cisplatin] the drug sensitivity score was 0.
In the case of CN[C@@H]1C[C@H]2O[C@@](C)([C@@H]1OC)n1c3ccccc3c3c4c(c5c6ccccc6n2c5c31)C(=O)N[C@H]4O [UCN-01], the drug sensitivity score was 4.48.
C[C@@H](Oc1cc(-c2cnn(C3CCNCC3)c2)cnc1N)c1c(Cl)ccc(F)c1Cl [Crizotinib] showed a drug sensitivity score of 0.
CC1(C)NC(=O)N(c2ccc([N+](=O)[O-])c(C(F)(F)F)c2)C1=O [Nilutamide] was tested, and the drug sensitivity score was 0.
CNCc1ccc(-c2[nH]c3cc(F)cc4c3c2CCNC4=O)cc1 [Rucaparib] gave a drug sensitivity score of 0.
Molecule C[C@]12CC[C@@H]3c4ccc(O)cc4C[C@@H](CCCCCCCCC[S+]([O-])CCCC(F)(F)C(F)(F)F)[C@H]3[C@@H]1CC[C@@H]2O (some centres not stated) [Fulvestrant] has a drug sensitivity score of 0.
CC(C)Cn1cnc2c(N)nc3ccccc3c21 [Imiquimod] was tested, and the drug sensitivity score was 0.
For C#Cc1cccc(Nc2ncnc3cc(OCCOC)c(OCCOC)cc23)c1 [Erlotinib], the drug sensitivity score was 0.
With O=P1(NCCCl)OCCCN1CCCl (configuration not stated) [Ifosfamide] the drug sensitivity score was 0.
Cn1c(Nc2ccc(C(F)(F)F)cc2)nc2cc(Oc3ccnc(-c4ncc(C(F)(F)F)[nH]4)c3)ccc21 [RAF265] was tested, and the drug sensitivity score was 0.
Cc1ccc(C(=O)N(CCCN)[C@@H](c2oc3cc(Cl)ccc3c(=O)c2Cc2ccccc2)C(C)C)cc1 gave a drug sensitivity score of 0.
Cn1c(CCCC(=O)O)nc2cc(N(CCCl)CCCl)ccc21 [Bendamustine] gave a drug sensitivity score of 0.
In the case of O=C1CCC(N2C(=O)c3ccccc3C2=O)C(=O)N1 (configuration not stated) [Thalidomide], the drug sensitivity score was 0.
Work on O=C(O)c1ccc(-c2c[nH]c3ncc(-c4ccccc4)cc23)cc1C1CCCC1 yielded a drug sensitivity score of 0.
C=C(c1ccc(C(=O)O)cc1)c1cc2c(cc1C)C(C)(C)CCC2(C)C [Bexarotene] was tested, and the drug sensitivity score was 0.

What follows are molecules tested on MCF-10A in the same assay as above. Settings: incubation time: 72 h.
Procedure, shortened: as §1
Oc1nc(-c2ccc(C(F)(F)F)cc2)nc2c1CSCC2 [XAV-939] showed a drug sensitivity score of 0.
NC(=O)Nc1cc(-c2cccc(F)c2)sc1C(=O)N[C@H]1CCCNC1 [AZD7762] gave a drug sensitivity score of 0.
Work on N.N.[Cl][Pt][Cl] [Cisplatin] yielded a drug sensitivity score of 0.
CN[C@@H]1C[C@H]2O[C@@](C)([C@@H]1OC)n1c3ccccc3c3c4c(c5c6ccccc6n2c5c31)C(=O)N[C@H]4O [UCN-01] showed a drug sensitivity score of 21.6.
In the case of C[C@@H](Oc1cc(-c2cnn(C3CCNCC3)c2)cnc1N)c1c(Cl)ccc(F)c1Cl [Crizotinib], the drug sensitivity score was 0.
In the case of CC1(C)NC(=O)N(c2ccc([N+](=O)[O-])c(C(F)(F)F)c2)C1=O [Nilutamide], the drug sensitivity score was 0.
CNCc1ccc(-c2[nH]c3cc(F)cc4c3c2CCNC4=O)cc1 [Rucaparib] gave a drug sensitivity score of 0.
Work on C[C@]12CC[C@@H]3c4ccc(O)cc4C[C@@H](CCCCCCCCC[S+]([O-])CCCC(F)(F)C(F)(F)F)[C@H]3[C@@H]1CC[C@@H]2O (some centres not stated) [Fulvestrant] yielded a drug sensitivity score of 0.
In the case of CC(C)Cn1cnc2c(N)nc3ccccc3c21 [Imiquimod], the drug sensitivity score was 0.
For C#Cc1cccc(Nc2ncnc3cc(OCCOC)c(OCCOC)cc23)c1 [Erlotinib], the drug sensitivity score was 0.
Molecule O=P1(NCCCl)OCCCN1CCCl (configuration not stated) [Ifosfamide] has a drug sensitivity score of 0.
In the case of Cc1ccc(C(=O)N(CCCN)[C@@H](c2oc3cc(Cl)ccc3c(=O)c2Cc2ccccc2)C(C)C)cc1, the drug sensitivity score was 0.
Molecule Cn1c(CCCC(=O)O)nc2cc(N(CCCl)CCCl)ccc21 [Bendamustine] has a drug sensitivity score of 0.
Work on O=C1CCC(N2C(=O)c3ccccc3C2=O)C(=O)N1 (configuration not stated) [Thalidomide] yielded a drug sensitivity score of 0.
Molecule O=C(O)c1ccc(-c2c[nH]c3ncc(-c4ccccc4)cc23)cc1C1CCCC1 has a drug sensitivity score of 0.
C=C(c1ccc(C(=O)O)cc1)c1cc2c(cc1C)C(C)(C)CCC2(C)C [Bexarotene] was tested, and the drug sensitivity score was 0.

What follows are molecules tested on MDA-MB-453 in the same assay as above. Settings: incubation time: 72 h.
Procedure, shortened: as §1
With Oc1nc(-c2ccc(C(F)(F)F)cc2)nc2c1CSCC2 [XAV-939] the drug sensitivity score was 0.
With NC(=O)Nc1cc(-c2cccc(F)c2)sc1C(=O)N[C@H]1CCCNC1 [AZD7762] the drug sensitivity score was 0.
Molecule N.N.[Cl][Pt][Cl] [Cisplatin] has a drug sensitivity score of 0.
For CN[C@@H]1C[C@H]2O[C@@](C)([C@@H]1OC)n1c3ccccc3c3c4c(c5c6ccccc6n2c5c31)C(=O)N[C@H]4O [UCN-01], the drug sensitivity score was 1.04.
C[C@@H](Oc1cc(-c2cnn(C3CCNCC3)c2)cnc1N)c1c(Cl)ccc(F)c1Cl [Crizotinib] showed a drug sensitivity score of 0.
